Where two headings read alike, the source gives them in different places.
Legend:
[1] = Stability of QC samples of the analytes in rat plasma under storage conditions; assay type: physicochemical; conditions: n = 6
Description: Preparation of quality control (QC) samples with three concentrations (low, medium, and high) of 16, 160, and 3,200 ng/ml for ellagic acid; 1.6, 16, 320 ng/ml for protocatechuic acid, ethyl gallate and 1,2,3,4,6-O-pentagalloylglucose; 40, 400 and 8,000 ng/ml for chebulic acid, gallic acid, corilagin and chebulinic acid and 160, 1,600, 32000 ng/ml for chebulagic acid. Both QC samples and stock solutions were stored in a refrigerator at 4°C.
Under variable treatment conditions: stored for 12 h at auto-sampler, for 4 hours at room temperature, under three freeze-thaw cycles, and kept at −80°C for 7 days, quality control samples were analyzed to assess the stability of the nine analytes in plasma.

[2] = Pharmacokinetic study in rats after oral administration of TC extracts (UPLC-MS/MS of plasma); conditions: male, Sprague-Dawley, rat, plasma, po, 10 g/kg
Description: (§1) UPLC-MS/MS system was used for analysis and monitoring, which consisted primarily of an Agilent 1290 UPLC system (Agilent Technologies, Germany) and an Agilent 6,470 series triple quad (TQ) mass spectrometer (MS) (Agilent Technologies, Singapore) equipped with an electrospray ionization source.
(§2) Separation was carried out on an ACQUITY UPLC® HSS T3 column (2.1 × 100 mm, 1.8 μm), and temperature in the column was kept at 20°C. In the mobile phase, 0.1% formic acid in water and acetonitrile were used as solvents A and B, respectively. Gradient elution was performed as follows: 1%–5% B at 0–3 min; 5%–30% B at 3–4 min; 30%–40% B at 4–8 min; 40%–100% B at 8–9 min; 100%–100% B at 9–12 min. The flow rate was set at 0.3 ml/min and the injection volume was 10 μL.
(§3) Multiple reaction monitoring (MRM) was used for quantitative analysis in negative (−) ionization mode. The mass spectrometric parameters were set as follows: drying gas (N2) temperature was 300°C; gas (N2) flow rate was 7 L/min; atomizer pressure was 35 psi; sheath gas flow was 11 L/min and capillary voltage was 3800 V. The specific mass spectrometric parameters of the precursor ion, product ion, fragmentor, collision energy, and ion modes of the nine compounds and IS are shown in Table 1.
(§4) The plasma sample (100 μl) was sequentially spiked with 20 μl IS solutions (caffeic acid, 1,000 ng/ml); 20 μL methanol, and 10 μl formic acid, then vortex-mixed for 1 min. The mixture was precipitated protein with 1,000 μl methanol by vortex mixing for 3 min. The supernatant was collected into a 1.5 ml clean centrifuge tube after centrifugation at for 10 min 14,000 rpm, and evaporated under a nitrogen stream until dry. After that, the residue was redissolved in 100 μl methanol, vortex-mixed for 3 min, then centrifuged for 10 min at 14,000 rpm. 10 μl analyte was injected into the UPLC-MS/MS system.
(§5) In this study, six of male rats were used, given free access to water, and fasted for 12 h before the experimental period. The TC extracts were dissolved in 0.5% CMC-Na aqueous solution as a suspension at a concentration of 1 g/ml. A dose of 10 g/kg of the suspension was administered to the rats orally, the blood samples of approximately 300 μL were drawn from the fundus venous plexus of rats pre- and post-oral administration at 0.00, 0.08, 0.17, 0.25, 0.50, 0.75, 1, 2, 4, 6, 8, 10, 12, 24, 36, 48, 60, 72, 84, 96, 120, 144 and 168 h, respectively. For analysis, the plasma supernatants collected from the centrifuged plasma were frozen at −80°C after centrifugation for 10 min at 6,000 rpm.
(§6) Data were expressed as mean ± standard deviation (mean ± SD). MassHunter Workstation software (version B.09.00) was quantitatively used to calculate the plasma concentrations of nine analytes. To evaluate the specific pharmacokinetic parameters, DAS Software (DAS 3.0, Medical College of Wannan, China) was used to process the pharmacokinetic results.

[3] = rat, in vivo, po
Description: as §1, §2, §3, §4, §5, §6

in vivo = conditions: male, Sprague-Dawley, rat, po, 10 g/kg
Description: as §1, §2, §3, §4, §5, §6

[4] = spiked 40 ng/mL, autosampler for 12 h
[5] = spiked 40 ng/mL, room temperature for 4 h
[6] = spiked 40 ng/mL, three freeze-thaw cycles
[7] = spiked 40 ng/mL, −80°C for 7 days
[8] = spiked 400 ng/mL, autosampler for 12 h
[9] = spiked 400 ng/mL, room temperature for 4 h
[10] = spiked 400 ng/mL, three freeze-thaw cycles
[11] = spiked 400 ng/mL, −80°C for 7 days
[12] = spiked 8,000 ng/mL, autosampler for 12 h
[13] = spiked 8,000 ng/mL, room temperature for 4 h
[14] = spiked 8,000 ng/mL, three freeze-thaw cycles
[15] = spiked 8,000 ng/mL, −80°C for 7 days

Row | Compound | Measured concentration after storage [1, 4] | Measured concentration after storage [1, 5] | Measured concentration after storage [1, 6] | Measured concentration after storage [1, 7] | Measured concentration after storage [1, 8] | Measured concentration after storage [1, 9] | Measured concentration after storage [1, 10] | Measured concentration after storage [1, 11] | Measured concentration after storage [1, 12] | Measured concentration after storage [1, 13] | Measured concentration after storage [1, 14] | Measured concentration after storage [1, 15] | also measured
1 | O=C(O[C@@H]1O[C@@H]2COC(=O)c3cc(O)c(O)c(O)c3-c3c(cc(O)c(O)c3O)C(=O)O[C@H]([C@H]1O)[C@@H]2O)c1cc(O)c(O)c(O)c1 [Corilagin, corilagin] | 38.8 ± 1.2 ng/mL | 39.6 ± 3.0 ng/mL | 42.8 ± 2.4 ng/mL | 39.7 ± 2.1 ng/mL | 435.7 ± 34.5 ng/mL | 398.2 ± 34.3 ng/mL | 405.3 ± 6.0 ng/mL | 395.6 ± 7.2 ng/mL | 7,335.4 ± 704.5 ng/mL | 8,930.5 ± 535.3 ng/mL | 8,802.7 ± 713.0 ng/mL | 8,304.6 ± 362.4 ng/mL | AUC [2]: 16700 ± 12400 ng·h/mL; AUC(0-inf) [2]: 17400 ± 12500 ng·h/mL; Cmax [2]: 591 ± 203 ng/mL; MRT [2]: 53.5 ± 4.12 h; MRT inf [2]: 99.4 ± 46.2 h; Tmax [2]: 1.67 ± 0.52 h; half-life [2]: 1580 ± 1340 min
2 | O=C(O)c1cc(O)c(O)c(O)c1 [Gallic acid, gallic acid] | 34.9 ± 5.1 ng/mL | 35.5 ± 1.0 ng/mL | 41.0 ± 2.8 ng/mL | 41.2 ± 0.8 ng/mL | 431.7 ± 27.3 ng/mL | 385 ± 36.1 ng/mL | 393.9 ± 35.3 ng/mL | 358.6 ± 21.8 ng/mL | 8,051.6 ± 602.3 ng/mL | 8,051.2 ± 472.7 ng/mL | 8,222.3 ± 456.3 ng/mL | 8,304.7 ± 418.5 ng/mL | T1/2 ([3]; male, Sprague-Dawley): 2.06 h; AUC (in vivo): 16000 ng·h/mL; AUC(0-inf) (in vivo): 16000 ng·h/mL; Cmax (in vivo): 2230 ng/mL; MRT (in vivo): 6.58 ± 1.07 h; MRT inf (in vivo): 6.58 ± 1.07 h; Tmax (in vivo): 1.17 ± 0.41 h; half-life (in vivo): 90.6 ± 25.8 min
3 | O=C(O)C[C@H](C(=O)O)[C@H]1c2c(cc(O)c(O)c2O)C(=O)O[C@@H]1C(=O)O [Chebulic acid, chebulic acid] | 35.6 ± 3.9 ng/mL | 39.9 ± 1.9 ng/mL | 40.1 ± 3.3 ng/mL | 37.5 ± 2.1 ng/mL | 393.3 ± 52.6 ng/mL | 395.7 ± 29.7 ng/mL | 398.4 ± 12.2 ng/mL | 364.4 ± 17.5 ng/mL | 8,230.9 ± 726.4 ng/mL | 7,996.4 ± 517.7 ng/mL | 7,691 ± 316.7 ng/mL | 6,878.6 ± 535.3 ng/mL | T1/2 [3]: 1.51 h; AUC (0-tn) ([3]; 10 g/kg): 29045.30 ± 4,395.44 h·ng/mL; AUC (0-∞) ([3]; 10 g/kg): 34069.03 ± 6,641.84 h·ng/mL; Cmax ([3]; 10 g/kg): 1927.06 ± 572.23 ng/mL; MRT (0-tn) ([3]; 10 g/kg): 33.56 ± 3.77 h; MRT (0-∞) ([3]; 10 g/kg): 77.92 ± 22.14 h; T1/2 ([3]; 10 g/kg): 6.60 ± 4.36 h; Tmax ([3]; 10 g/kg): 1.67 ± 0.52 h
